Measured values published in article PMC9404792, “Synthesis and Antioxidant Properties of HeteroBisNitrones Derived from Benzene Dicarbaldehydes” (Antioxidants, 2022).

Target: T1, soybean lipoxygenase (LOX) (Glycine max, UniProt P08170)
T1 construct: gene LOX1.1
T1 sequence (P08170 1-839): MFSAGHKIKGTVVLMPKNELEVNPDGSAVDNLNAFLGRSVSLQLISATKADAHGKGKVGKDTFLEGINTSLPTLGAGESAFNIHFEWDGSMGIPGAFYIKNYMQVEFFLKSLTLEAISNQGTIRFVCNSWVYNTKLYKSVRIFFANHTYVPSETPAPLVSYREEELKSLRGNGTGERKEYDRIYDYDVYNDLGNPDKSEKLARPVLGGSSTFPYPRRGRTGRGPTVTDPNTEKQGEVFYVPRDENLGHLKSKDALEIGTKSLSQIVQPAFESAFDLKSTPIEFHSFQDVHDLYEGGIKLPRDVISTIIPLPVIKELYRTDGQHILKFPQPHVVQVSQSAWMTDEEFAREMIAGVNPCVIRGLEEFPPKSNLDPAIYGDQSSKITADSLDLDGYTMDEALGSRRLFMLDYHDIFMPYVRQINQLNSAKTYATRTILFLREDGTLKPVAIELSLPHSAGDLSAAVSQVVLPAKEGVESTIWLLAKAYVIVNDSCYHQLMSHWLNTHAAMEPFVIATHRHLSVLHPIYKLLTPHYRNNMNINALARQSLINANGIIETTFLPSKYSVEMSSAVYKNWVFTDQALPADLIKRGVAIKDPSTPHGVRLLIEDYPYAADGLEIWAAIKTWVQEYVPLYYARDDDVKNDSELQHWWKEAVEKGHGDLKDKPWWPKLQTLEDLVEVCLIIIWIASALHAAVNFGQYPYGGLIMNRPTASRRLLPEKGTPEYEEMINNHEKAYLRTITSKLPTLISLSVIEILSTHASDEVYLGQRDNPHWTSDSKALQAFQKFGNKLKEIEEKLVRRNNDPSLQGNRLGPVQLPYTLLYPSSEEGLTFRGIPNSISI
Assay: UV assay at […] nm of sodium linoleate conversion to 13-hydroperoxylinoleic acid
Type: biochemical
Conditions: read-out: LOX Inhibition (% or IC50 [μM])

IC50 [µM]	Structure (SMILES)
82.5	C/[N+]([O-])=C/c1ccccc1/C=[N+](\[O-])Cc1ccccc1 [hBN8, (Z)-N-Benzyl-1-(2-((Z)-(methyloxidoazaneylidene)methyl)phenyl)methanimine oxide]
57.5	CC(C)(C)/[N+]([O-])=C/c1ccccc1/C=[N+](\[O-])Cc1ccccc1 [hBN9, (Z)-N-Benzyl-1-(2-((Z)-(tert-butyloxidoazaneylidene)methyl)phenyl)methanimine oxide]
